The values below come from ChEMBL document CHEMBL1128825, “Synthetic inhibitors of interleukin-6 II: 3,5-diaryl pyridines and meta-terphenyls” (Bioorg Med Chem Lett, 1995).

Assay [1] concerns WEHI265.1. Kind of assay: In vitro inhibitory activity against lipopolysaccharide (LPS)-induced IL-6 production in murine myelomonocytic uM. The class given is functional, Mus musculus. Details: concentration or dose not given beside the values.
Assay [2] deals with Mus musculus. Nature of the assay: In vivo inhibition of serum IL-1 after i.p. administration of 25 mpk dose; showed no inhibition. The class given is functional, organism-based.
Assay [3] deals with Mus musculus. Nature of the assay: In vivo inhibition of TNF- alpha after intraperitoneal administration of 25 mpk dose; showed no inhibition. The class given is functional, organism-based.
The test system of assay [4] is Mus musculus. Nature of the assay: In vivo inhibition of serum IL-6 after intraperitoneal administration of 25 mpk dose. The format is functional. Particulars: ip.
Assay [5] is filed under the species Mus musculus. Kind of assay: Inhibitory activity against serum IL-6. The class given is functional, organism-based.
For assay [6], the system named is Mus musculus. Kind of assay: In vivo inhibition of serum IL-5 after i.p. administration of 25 mpk dose; showed no inhibition. The format is functional, organism-based.
Assay [7] has as its system Mus musculus. Kind of assay: Effective dose required for in vivo inhibition of serum IL-6. The format is functional.
Assay [8] relates to Mus musculus. Nature of the assay: In vivo inhibition of serum IL-6 after peroral administration of 25 mpk dose. The class given is functional. The note with it: po.
The subject of assay [9] is WEHI265.1. Nature of the assay: In vitro inhibitory activity against lipopolysaccharide (LPS) -induced IL-6 production in murine myelomonocytic uM; cytotoxic. Particulars: Mus musculus. The class given is functional, cell-based.

Structures are written as SMILES. The source made the active and inactive calls. No cut-off for these calls is given here.

By Inhibition is commonly meant how much of the control response was suppressed. Broadly, the inhibition in vivo is the drop in the measured response relative to a control, in per cent. As a reminder, the IC50 is the concentration that gives 50% inhibition. A word on the ED50: it is the dose that gives a 50% effect, or the effect in half of the subjects.

On to `Oc1ccccc1-c1cccc(-c2ccccc2O)c1`, for which the Inhibition in the assay with WEHI265.1 [1] turned out to be 21%.
As for `Fc1ccc(-c2ccc(-c3ccc(F)cc3)nc2)cc1`, the Inhibition in the assay with WEHI265.1 [1] was determined as 47%.
Same read-out and setting: the figure for `Oc1ccc(-c2cc(-c3ccc(O)cc3)c(Cl)nc2Cl)cc1` is 52%; for `Oc1ccc(-c2cnc(O)c(-c3ccc(O)cc3)c2)cc1` it is 49%.
On the same count and under the same terms, the figure for `COc1cccc(-c2cccc(-c3cccc(OC)c3)c2)c1` is 24%; for `Oc1ccc(-c2cnc(Cl)c(-c3ccc(O)cc3)c2)cc1` it is 61%; for `Oc1ccc(-c2cccc(-c3ccc(O)cc3)n2)cc1` it is 23%.
Still for that read-out and setting: the figure for `[O-][n+]1cc(-c2ccc(O)cc2)cc(-c2ccc(O)cc2)c1` is 37%; for `COc1ccc(-c2cccc(-c3ccc(OC)cc3)n2)cc1` it is 55%; for `Oc1cccc(-c2cccc(-c3cccc(O)c3)c2)c1` it is 21%.
Regarding `Oc1ccc(-c2cncc(-c3ccc(O)cc3)n2)cc1`, in the assay with WEHI265.1 [1], the Inhibition turned out to be 55%.
`Oc1ccc(-c2cccc(-c3ccc(O)cc3)c2)cc1`: the outcome in the assay with Mus musculus [2], in the assay with Mus musculus [3] and in the assay with Mus musculus [6] was inactive. The molecule also displayed an inhibition in vivo at 25 mg/kg in the assay on Mus musculus [4] of 88%. The Inhibition in the assay with WEHI265.1 [1] stood at 85%. For the same molecule, the IC50 in the assay filed under Mus musculus [5] was 1500 nM. Besides, the ED50 in the assay on Mus musculus [7] worked out at 1.5 mg/kg.
Molecule `Oc1ccccc1-c1cncc(-c2ccccc2O)c1` showed an Inhibition in the assay on WEHI265.1 [1] of 23%.
Consider `Oc1ccc(-c2ccc(-c3ccc(O)cc3)nc2)cc1`, for which, in the assay with WEHI265.1 [1], the Inhibition amounted to 27%.
On the same count and under the same terms, for `Oc1cccc(-c2cncc(-c3cccc(O)c3)c2)c1` the value was 59%.
For `Oc1ccc(-c2cncc(-c3ccc(O)cc3)c2)cc1`, the outcome with Mus musculus [2], in the assay on Mus musculus [3] and with Mus musculus [6] was inactive. Besides, the figures for the inhibition in vivo at 25 mg/kg in the assay on Mus musculus [8] and in the assay on Mus musculus [4] were 71% and 63%, respectively. This molecule also came in with an Inhibition in the assay on WEHI265.1 [1] of 73%. For the same molecule, 400 nM corresponded to half-maximal inhibition in the assay filed under Mus musculus [5] (IC50). Further, the 50% effect level with Mus musculus [7] (ED50) was put at a dose of 2.8 mg/kg.
`Cc1cncc(-c2ccc(O)cc2)c1` gave an Inhibition with WEHI265.1 [1] of 7%.
The same measure, in the same setting: for `Oc1ccc(-c2cncc(-c3ccc(O)cc3)c2Cl)cc1` the value was 60%; for `Fc1ccc(-c2cncc(-c3ccc(F)cc3)c2)cc1`, 44%.
In the case of `CN(C)Cc1ccc(-c2cncc(-c3ccc(CN(C)C)cc3)c2)cc1`, in the assay on WEHI265.1 [1], the Inhibition was 60%.
Same read-out and setting: the figure for `Fc1ccc(-c2cccc(-c3ccc(F)cc3)n2)cc1` is 44%; for `COc1ccccc1-c1cccc(-c2ccccc2OC)c1` it is 22%; for `Oc1ccc(-c2cccnc2)cc1` it is 0%.
`CN(C)Cc1ccc(-c2cccc(-c3ccc(CN(C)C)cc3)c2)cc1`: the inhibition entry in the assay on WEHI265.1 [9] is “Toxic”.
Take `COc1ccc(-c2ccc(-c3ccc(OC)cc3)nc2)cc1`: in the assay on WEHI265.1 [1], the Inhibition is 30%.
The same measure, in the same setting: the figure for `COc1ccc(-c2cccc(-c3ccc(OC)cc3)c2)cc1` is 75%.
Same read-out and setting: for `COc1ccc(-c2cncc(-c3ccc(OC)cc3)c2)cc1` the value was 0%; for `Oc1ccc(-c2cncc(Cl)c2)cc1`, 0%.
In the assay on WEHI265.1 [1], `c1ccc(-c2cncc(-c3ccccc3)c2)cc1` gave an Inhibition of 8%.
On the same count and under the same terms, for `N#Cc1ncc(-c2ccc(O)cc2)cc1-c1ccc(O)cc1` the value was 40%.
